Data from patent US20260287586A1, “METHODS OF TREATING TKI-RESISTANT AND SDH-DEFICIENT GIST” (priority 2023, published 2026).
Several values for one entry are separate records, joined by “and”; a condition that tells them apart may be missing. Identical values can stand only once. Entries after “also recorded” stand apart in the source; their conditions may differ.

Assays:
[1] = tested on: GIST430 cell-derived xenograft; assay: Imatinib-resistant GIST430 cell-derived xenograft model; assay type: in vivo; settings: olverembatinib 15 mg/kg every other day for 3 weeks; lisaftoclax 50 mg/kg daily for 3 weeks; alone or combined
Description: (§1) Therefore, selective inhibition of BCL-2, aided by TKI-mediated MCL-1 and BCL-XL inhibition, markedly augmented cleavage of caspase-3 and poly(ADP-ribose) polymerase 1 (PARP-1), thus triggering apoptosis and subsequently enhancing antitumor effects.

[2] = tested on: BCL-XL and MCL-1 protein expression; assay: Mechanism study: BCL-XL and MCL-1 protein expression; assay type: cell-based; settings: possibly via inhibition of KIT signal pathway and STAT3
Description: as §1

[3] = Phase 1 trial HQP1351-SJ-0003 of olverembatinib: safety (adverse events, DLT, MTD/RP2D); assay type: in vivo, human; settings: for Abdominal pain, treatment-emergent AE / Anemia, treatment-emergent AE / Constipation, treatment-emergent AE / Fatigue, treatment-emergent AE / Hyperuricemia, treatment-emergent AE / Increased alanine aminotransferase, treatment-emergent AE / Increased aspartate aminotransferase, treatment-emergent AE / Increased leukocyte count, treatment-emergent AE / Increased neutrophil count, treatment-emergent AE / Pyrexia, treatment-emergent AE: all patients N = 66
Description: The dose escalation aspect of the study enrolled patients with advanced and/or metastatic GIST or other solid tumors that were refractory or had relapsed after treatment with at least one TKI.
Eligible patients were adults (≥18 years) who had advanced and/or metastatic GISTs or other solid tumors confirmed by histology and/or cytology. The definition of SDH-deficient GIST was based on pathological phenotype with negative immunohistochemical staining for SDHB. Also required for study enrollment were Eastern Cooperative Oncology Group performance status (ECOG PS)≤2; and adequate renal, hepatic, cardiac, and bone marrow function. A full list of inclusion and exclusion criteria is in the protocol. Enrollment trends, ongoing review of study data, and evolving knowledge regarding the GIST treatment paradigm informed the study sponsor's medical director's and investigators' decision to analyze the SDH-deficient GIST patient subgroup separately.
Based on encouraging initial activity and favorable tolerability (Qiu, H., et al., J. Clin. Oncol. 40, 11513 (2022)), additional patients with SDH-deficient GIST were enrolled to further explore efficacy, and patients with TKI-naïve SDH-deficient GIST and adolescent patients (aged 12-18 years old) with SDH-deficient GIST were permitted. After data from the dose-escalation part of the study were reviewed during a meeting of the principal investigators and a postmarket dose was recommended to treat CML, all adult patients received 40 mg QOD (determined RP2D dose), and adolescent patients received 20 to 40 mg QOD based on body weight. If body weight was at least 40 kg, patients received 40 mg QOD; if within 30-40 kg, 30 mg QOD; and, if within 20-30 kg, 20 mg QOD. Patients with SDH-deficient malignant paraganglioma who had failed at least one treatment and were without appropriate treatment (as judged by investigators) were also enrolled. Treatment could continue until precluded by toxicity, noncompliance, withdrawal of consent, physician decision, progressive disease, death, or closure of the study. All protocol modifications, including those increasing the number of patients and cohorts in the dose-expansion aspect, are established in the trial protocol version dated May 27, 2022.
Physical examination and adverse events (AEs) were evaluated at each follow-up visit (day −28~day −1 after signed informed consent form); on days 1, 8, 15, and 22 during cycles 1 and 2; and on days 1 and 15 in cycle 3 and all subsequent cycles, up to 30 days after the final dose. All AEs were graded according to the US National Cancer Institute (NCI) Common Terminology Criteria for Adverse Events (CTCAE; version 4.03). Clinical laboratory investigations for routine blood examinations and serum chemistry parameters were performed during every cycle (on day 1); cycles 1 and 2 (on days 8, 15, and 22); and 30 days after the last dose of treatment. Urinalysis, coagulation, cardiac troponin I/T, lipase, amylase, and electrocardiograms were done at baseline; during cycles 1 and 2 (on days 1 and 15); cycle 3, 5, 7, and 9; every 3 cycles after cycle 9 (on day 1); and 14 days after the last dose of treatment. All patients underwent tumor imaging for response assessment via computed tomography or magnetic resonance imaging at screening and every two cycles (8 weeks) until progression or discontinuation. Target and nontarget lesions were assessed per Response Evaluation Criteria in Solid Tumors version 1.1 (RECIST v1.1).
The data cutoff for this analysis was Dec. 27, 2023. The safety population included all patients who received at least one dose of olverembatinib. The SDH-deficient GIST population (prespecified subgroup) included patients in the safety population. MTD was defined as the highest dose level with no more than one dose-limiting toxicity in six patients.

[4] = reported in ≥2 patients, N = 66

## Cc1ccc(C(=O)Nc2ccc(CN3CCN(C)CC3)c(C(F)(F)F)c2)cc1C#Cc1cnc2[nH]ncc2c1 [Olverembatinib, olverembatinib]
[1]
  Tumor growth inhibition (TGI) rate: 57.6%
[2]
  effect on BCL-XL and MCL-1 protein expression: downregulate BCL-XL and MCL-1 protein expression
[3]; 20-50 mg QOD
  dose-limiting toxicities: No dose-limiting toxicities were reported; also recorded: No dose-limiting toxicity was observed
  maximum tolerated dose (MTD): not reached
[3]; N = 66
  dose reductions due to TRAEs: dose reductions in two patients
  patients who experienced grade ≥3 TRAEs: 13.6%
  patients who experienced treatment-related adverse events (TRAEs): 93.9%
  treatment-related serious adverse events: 7.6%
[3]; N = 66, value is N
  Anemia, treatment-related serious AE: 2 N (%)
  Coronary sclerosis, treatment-related serious AE: 1 N (%)
  Intestinal obstruction, treatment-related serious AE: 1 N (%)
  Leukemoid reaction, treatment-related serious AE: 1 N (%)
[3]; all 66 subjects, oral 20-50 mg QOD
  subjects who experienced treatment-emergent adverse events (TEAEs): 100.0%
[3]; any grade, N = 66, value is N
  Abdominal pain, treatment-related AE: 3 N (%)
  Anemia, treatment-related AE: 9 N (%)
  Constipation, treatment-related AE: 23 N (%)
  Coronary sclerosis, treatment-related AE: 1 N (%)
  Decreased neutrophil count, treatment-related AE: 3 N (%)
  Fatigue, treatment-related AE: 18 N (%)
  Hypertension, treatment-related AE: 3 N (%)
  Hyperuricemia, treatment-related AE: 12 N (%)
  Hypoalbuminemia, treatment-related AE: 10 N (%)
  Increased CRP, treatment-related AE: 11 N (%)
  Increased WBC count, treatment-related AE: 27 N (%)
  Increased alanine aminotransferase, treatment-related AE: 20 N (%)
  Increased aspartate aminotransferase, treatment-related AE: 23 N (%)
  Increased creatinine, treatment-related AE: 9 N (%)
  Increased neutrophil count, treatment-related AE: 22 N (%)
  Increased platelet count, treatment-related AE: 7 N (%)
  Intestinal obstruction, treatment-related AE: 2 N (%)
  Leukemoid reaction, treatment-related AE: 1 N (%)
  Melanocytic nevi, treatment-related AE: 15 N (%)
[3]; any grade
  Abdominal pain, treatment-emergent AE: 15 N (%) and 15 (22.7) N (%)
  Anemia, treatment-emergent AE: 31 N (%) and 31 (47.0) N (%)
  Constipation, treatment-emergent AE: 27 N (%) and 27 (40.9) N (%)
  Fatigue, treatment-emergent AE: 20 (30.3) N (%)
  Hyperuricemia, treatment-emergent AE: 31 (47.0) N (%)
  Increased alanine aminotransferase, treatment-emergent AE: 25 N (%) and 25 (37.9) N (%)
  Increased aspartate aminotransferase, treatment-emergent AE: 31 N (%) and 31 (47.0) N (%)
  Increased leukocyte count, treatment-emergent AE: 32 N (%) and 32 (48.5) N (%)
  Increased neutrophil count, treatment-emergent AE: 25 N (%) and 25 (37.9) N (%)
  Pyrexia, treatment-emergent AE: 28 N (%) and 28 (42.4) N (%)
[3]; grades 3-5, N = 66, value is N
  Abdominal pain, treatment-related AE: 1 N (%)
  Anemia, treatment-related AE: 1 N (%)
  Constipation, treatment-related AE: 0 N (%)
  Coronary sclerosis, treatment-related AE: 1 N (%)
  Decreased neutrophil count, treatment-related AE: 2 N (%)
  Fatigue, treatment-related AE: 1 N (%)
  Hypertension, treatment-related AE: 1 N (%)
  Hyperuricemia, treatment-related AE: 0 N (%)
  Hypoalbuminemia, treatment-related AE: 0 N (%)
  Increased CRP, treatment-related AE: 0 N (%)
  Increased WBC count, treatment-related AE: 0 N (%)
  Increased alanine aminotransferase, treatment-related AE: 1 N (%)
  Increased aspartate aminotransferase, treatment-related AE: 1 N (%)
  Increased creatinine, treatment-related AE: 0 N (%)
  Increased neutrophil count, treatment-related AE: 0 N (%)
  Increased platelet count, treatment-related AE: 0 N (%)
  Intestinal obstruction, treatment-related AE: 1 N (%)
  Leukemoid reaction, treatment-related AE: 1 N (%)
  Melanocytic nevi, treatment-related AE: 0 N (%)
[3]; grades 3-5
  Abdominal pain, treatment-emergent AE: 1 (1.5) N (%)
  Anemia, treatment-emergent AE: 4 (6.1) N (%)
  Constipation, treatment-emergent AE: 0 N (%)
  Fatigue, treatment-emergent AE: 1 (1.5) N (%)
  Hyperuricemia, treatment-emergent AE: 1 (1.5) N (%)
  Increased alanine aminotransferase, treatment-emergent AE: 2 (3.0) N (%)
  Increased aspartate aminotransferase, treatment-emergent AE: 2 (3.0) N (%)
  Increased leukocyte count, treatment-emergent AE: 0 N (%)
  Increased neutrophil count, treatment-emergent AE: 0 N (%)
  Pyrexia, treatment-emergent AE: 0 N (%)
[3]; of 66 patients
  patients who required treatment interruption: 31.8%
[3]; on alternate days (QOD)
  RP2D: 40 mg
[3]; patients in the phase 1 trial
  tolerability: well tolerated
[3]; [4]
  Anemia, serious treatment-emergent AE: 2 (3.0) N (%)
  Intestinal obstruction, serious treatment-emergent AE: 5 (7.6) N (%)
